From US11337964B2, “Isoindoline derivative, pharmaceutical composition and use thereof” (Kangpu Biopharmaceuticals, Ltd., priority 2017, dated 2022)

Legend:
Format in all cases: biochemical
Settings in all cases: FAM-cAMP substrate, 30 minutes at room temperature
PDE4A1A = molecular target: T1, PDE4A1A (Homo sapiens, UniProt P27815); assay: PDE4 activity inhibition assay, PDE4A1A
T1 construct: purchased BPS 60040
Procedure: (§1) The IC50 value of the inhibitory effect of the compound on PDE4A1A, PDE4B1 and PDE4D3 was tested.
(§2) Positive compound: Trequinsin (Sigma, Cat. No. T2057).
(§3) Equipment: Wallac Victor Multi-label counter (Perkin Elmer).
(§4) I. Preparing 1× reaction liquid and termination liquid;
(§5) II. PDE enzymatic reaction; • 1) The PDE was dissolved in 1× reaction solution to form 2× enzyme solution. • 2) FAM-cAMP was dissolved in 1× reaction solution to form 2× substrate solution. • 3) Echo 550 was used to transfer the corresponding volume of the compound in DMSO solution to the reaction plate. • 4) 2× enzyme solution was added into the corresponding well of the reaction plate and incubated with the compound solution at room temperature for 15 minutes. • 5) 2× substrate solution was added into the corresponding well of the reaction plate to initiate the reaction. • 6) Reaction plate was incubated at room temperature for 30 minutes and terminated by adding termination liquid, then incubated at room temperature for 60 minutes.
(§6) The inhibition rate was calculated by Excel; IC50 was calculated by GraphPad Prism.

PDE4D3 = molecular target: T2, PDE4D3 (Homo sapiens, UniProt Q08499); assay: PDE4 activity inhibition assay, PDE4D3
T2 construct: purchased BPS 60046
Procedure: as §1, §2, §3, §4, §5, §6

PDE4B1 = molecular target: T3, PDE4B1 (Homo sapiens, UniProt Q07343); assay: PDE4 activity inhibition assay, PDE4B1
T3 construct: purchased BPS 60041
Procedure: as §1, §2, §3, §4, §5, §6

T1 sequence (P27815 1-647 isoform P27815-4): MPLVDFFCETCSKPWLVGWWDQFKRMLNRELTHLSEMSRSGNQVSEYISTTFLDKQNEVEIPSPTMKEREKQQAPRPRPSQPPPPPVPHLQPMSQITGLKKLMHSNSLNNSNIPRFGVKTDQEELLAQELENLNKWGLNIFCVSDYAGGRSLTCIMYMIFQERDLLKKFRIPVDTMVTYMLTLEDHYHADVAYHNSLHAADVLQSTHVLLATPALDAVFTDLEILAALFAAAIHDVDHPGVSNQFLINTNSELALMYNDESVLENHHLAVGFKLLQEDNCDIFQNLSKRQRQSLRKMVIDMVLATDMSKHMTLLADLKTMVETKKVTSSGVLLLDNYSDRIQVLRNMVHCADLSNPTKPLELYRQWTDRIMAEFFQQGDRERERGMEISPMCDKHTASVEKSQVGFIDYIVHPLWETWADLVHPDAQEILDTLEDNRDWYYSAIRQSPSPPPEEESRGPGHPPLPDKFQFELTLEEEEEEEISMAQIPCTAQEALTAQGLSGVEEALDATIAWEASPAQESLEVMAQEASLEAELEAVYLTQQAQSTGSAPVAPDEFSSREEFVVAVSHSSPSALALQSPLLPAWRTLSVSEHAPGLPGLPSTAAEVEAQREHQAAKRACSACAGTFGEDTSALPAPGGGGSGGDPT
T2 sequence (Q08499 1-673 isoform Q08499-2): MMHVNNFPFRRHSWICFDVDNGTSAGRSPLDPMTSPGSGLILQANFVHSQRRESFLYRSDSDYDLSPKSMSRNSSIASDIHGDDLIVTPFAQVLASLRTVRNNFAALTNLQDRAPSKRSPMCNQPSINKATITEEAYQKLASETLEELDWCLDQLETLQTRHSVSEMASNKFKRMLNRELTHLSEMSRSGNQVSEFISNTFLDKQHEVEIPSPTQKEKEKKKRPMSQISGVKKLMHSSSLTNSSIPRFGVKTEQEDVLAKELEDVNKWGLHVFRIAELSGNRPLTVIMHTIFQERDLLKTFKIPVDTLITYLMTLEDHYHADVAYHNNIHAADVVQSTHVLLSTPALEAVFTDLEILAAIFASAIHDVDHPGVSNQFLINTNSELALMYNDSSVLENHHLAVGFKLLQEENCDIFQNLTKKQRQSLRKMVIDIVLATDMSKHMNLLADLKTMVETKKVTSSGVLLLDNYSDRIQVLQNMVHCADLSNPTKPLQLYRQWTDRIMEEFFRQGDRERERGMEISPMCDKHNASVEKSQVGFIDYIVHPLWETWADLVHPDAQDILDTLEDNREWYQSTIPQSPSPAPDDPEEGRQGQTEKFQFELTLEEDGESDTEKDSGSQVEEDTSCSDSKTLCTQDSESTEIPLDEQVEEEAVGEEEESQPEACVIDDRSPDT
T3 sequence (Q07343 whole entry): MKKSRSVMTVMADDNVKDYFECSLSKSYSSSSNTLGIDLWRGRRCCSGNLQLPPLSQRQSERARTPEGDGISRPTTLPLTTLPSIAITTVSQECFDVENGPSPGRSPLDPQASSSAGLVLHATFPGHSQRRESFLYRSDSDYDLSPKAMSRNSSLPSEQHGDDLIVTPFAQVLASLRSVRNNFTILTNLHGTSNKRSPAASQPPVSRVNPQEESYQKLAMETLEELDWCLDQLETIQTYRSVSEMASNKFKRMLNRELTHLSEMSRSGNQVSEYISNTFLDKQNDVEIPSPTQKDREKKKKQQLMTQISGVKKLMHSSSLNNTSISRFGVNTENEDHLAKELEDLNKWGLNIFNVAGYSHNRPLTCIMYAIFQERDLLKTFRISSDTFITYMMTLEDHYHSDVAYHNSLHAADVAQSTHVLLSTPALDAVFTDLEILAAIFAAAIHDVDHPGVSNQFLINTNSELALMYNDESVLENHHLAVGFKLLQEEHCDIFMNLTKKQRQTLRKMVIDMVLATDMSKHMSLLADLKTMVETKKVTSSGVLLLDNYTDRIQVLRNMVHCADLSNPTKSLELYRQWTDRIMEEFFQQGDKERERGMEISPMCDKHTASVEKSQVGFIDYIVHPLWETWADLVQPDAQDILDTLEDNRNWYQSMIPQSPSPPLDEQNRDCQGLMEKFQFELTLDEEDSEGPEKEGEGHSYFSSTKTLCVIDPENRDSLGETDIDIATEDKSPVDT

Row | SMILES | IC50 (PDE4A1A) [nM] | IC50 (PDE4D3) [nM] | IC50 (PDE4B1) [nM]
1 | [2H]C([2H])([2H])Oc1ccc([C@H](CS(C)(=O)=O)N2C(=O)c3c(F)ccc(NC(C)=O)c3C2=O)cc1OCC [Compound 104, (R)—N-(2-(1-(3-ethoxy-4-d3-methoxyphenyl)-2-(methylsulfonyl)ethyl)-7-fluoro-1,3-dioxoisoindolin-4-yl)acetamide] | 53 | 31 | 70
2 | [2H]C([2H])([2H])Oc1ccc([C@@H](CS(C)(=O)=O)N2C(=O)c3c(F)ccc(NC(C)=O)c3C2=O)cc1OC([2H])([2H])[2H] [Compound 105, (S)—N-(2-(1-(3,4-d6-dimethoxyphenyl)-2-(methylsulfonyl)ethyl)-7-fluoro-1,3-dioxoisoindolin-4-yl)acetamide] | 61 | 41 | 97
3 | [2H]C([2H])([2H])Oc1ccc([C@H](CS(C)(=O)=O)N2C(=O)c3c(F)ccc(NC(C)=O)c3C2=O)cc1OC([2H])([2H])[2H] [Compound 106, (R)—N-(2-(1-(3,4-d6-dimethoxyphenyl)-2-(methylsulfonyl)ethyl)-7-fluoro-1,3-dioxoisoindolin-4-yl)acetamide] | 340 | 300 | 493
4 | [2H]C([2H])([2H])Oc1ccc([C@@H](CS(C)(=O)=O)N2C(=O)c3c(F)ccc(NC(C)=O)c3C2=O)cc1OC([2H])([2H])C([2H])([2H])[2H] [Compound 107, (S)—N-(2-(1-(3-d5-ethoxy-4-d3-methoxyphenyl)-2-(methylsulfonyl)ethyl)-7-fluoro-1,3-dioxoisoindolin-4-yl)acetamide] | 8.3 | 4.6 | 12
5 | [2H]C([2H])([2H])Oc1ccc([C@@H](CS(C)(=O)=O)N2C(=O)c3c(Cl)ccc(NC(C)=O)c3C2=O)cc1OCC [Compound 113, (S)—N-(7-chloro-2-(1-(3-ethoxy-4-d3-methoxyphenyl)-2-(methylsulfonyl)ethyl)-1,3-dioxoisoindolin-4-yl)acetamide] | 2.1 | 1.3 | 5.1
6 | CCOc1cc([C@@H](CS(C)(=O)=O)N2C(=O)c3c(C#N)ccc(NC(C)=O)c3C2=O)ccc1OC [Compound 115, (S)—N-(7-cyano-2-(l 1-(3-ethoxy-4-methoxyphenyl)-2-(methylsulfonyl)ethyl)-1,3-dioxoisoindolin-4-yl)acetamide] | 6 | 5.7 | 17.3
7 | [2H]C([2H])([2H])Oc1ccc([C@@H](CS(C)(=O)=O)N2C(=O)c3c(F)ccc(NC(=O)C4CC4)c3C2=O)cc1OCC [Compound 118, (S)—N-(2-(1-(3-ethoxy-4-d3-methoxyphenyl)-2-(methylsulfonyl)ethyl)-7-fluoro-1,3-dioxoisoindolin-4-yl)cyclopropanecarboxamide] | 5.1 | 2.5 | 8.7
8 | [2H]C([2H])([2H])Oc1ccc([C@@H](CS(C)(=O)=O)N2C(=O)c3cccc(NC(=O)C4CC4)c3C2=O)cc1OCC [Compound 120, (S)—N-(2-(1-(3-ethoxy-4-d3-methoxyphenyl)-2-(methylsulfonyl)ethyl)-1,3-dioxoisoindolin-4-yl)cyclopropanecarboxamide] | 7.6 | 4.9 | 11
9 | CCOc1cc(C(CS(C)(=O)=O)N2C(=O)c3c(F)ccc(NC(C)=O)c3C2=O)ccc1OC(F)F (stereo not drawn) [Compound 121, N-(2-(1-(4-(difluoromethoxy)-3-ethoxyphenyl)-2-(methylsulfonyl)ethyl)-7-fluoro-1,3-dioxoisoindolin-4-yl)acetamide] | 3.4 | 0.9 | 7
10 | [2H]C([2H])([2H])Oc1ccc([C@H](CS(C)(=O)=O)N2C(=O)c3cc(F)cc(NC(C)=O)c3C2=O)cc1OCC [Compound 204, (R)—N-(2-(1-(3-ethoxy-4-d3-methoxyphenyl)-2-(methylsulfonyl)ethyl)-6-fluoro-1,3-dioxoisoindolin-4-yl)acetamide] | 133 | 83 | 157
11 | [2H]C([2H])([2H])Oc1ccc([C@@H](CS(C)(=O)=O)N2C(=O)c3cc(F)cc(NC(C)=O)c3C2=O)cc1OC([2H])([2H])[2H] [Compound 205, (S)—N-(2-(1-(3,4-d6-dimethoxyphenyl)-2-(methylsulfonyl)ethyl)-6-fluoro-1,3-dioxoisoindolin-4-yl)acetamide] | 123 | 79 | 165
12 | [2H]C([2H])([2H])Oc1ccc([C@H](CS(C)(=O)=O)N2C(=O)c3cc(F)cc(NC(C)=O)c3C2=O)cc1OC([2H])([2H])[2H] [Compound 206, (R)—N-(2-(1-(3,4-d6-dimethoxyphenyl)-2-(methylsulfonyl)ethyl)-6-fluoro-1,3-dioxoisoindolin-4-yl)acetamide] | 1460 | 997 | 1350
13 | [2H]C([2H])([2H])Oc1ccc([C@@H](CS(C)(=O)=O)N2C(=O)c3cc(F)cc(NC(C)=O)c3C2=O)cc1OC([2H])([2H])C([2H])([2H])[2H] [Compound 207, (S)—N-(2-(1-(3-d5-ethoxy-4-d3-methoxyphenyl)-2-(methylsulfonyl)ethyl)-6-fluoro-1,3-dioxoisoindolin-4-yl)acetamide] | 20 | 12 | 20

Second part, the compound after the results:

Row | IC50 (PDE4A1A) [nM] | IC50 (PDE4D3) [nM] | IC50 (PDE4B1) [nM] | SMILES
14 | 17 | 12 | 27 | CCOc1cc(C(CS(C)(=O)=O)N2C(=O)c3c(F)ccc(NC(C)=O)c3C2=O)ccc1OC (stereo not drawn) [Compound 101, N-(2-(1-(3-ethoxy-4-methoxyphenyl)-2-(methylsulfonyl)ethyl)-7-fluoro-1,3-dioxoisoindolin-4-yl)acetamide]
15 | 11 | 7.4 | 14 | CCOc1cc([C@@H](CS(C)(=O)=O)N2C(=O)c3c(F)ccc(NC(C)=O)c3C2=O)ccc1OC [Compound 102, (S)—N-(2-(1-(3-ethoxy-4-methoxyphenyl)-2-(methylsulfonyl)ethyl)-7-fluoro-1,3-dioxoisoindolin-4-yl)acetamide]
16 | 1.3 | 1.9 | 4.3 | CCOc1cc([C@@H](CS(C)(=O)=O)N2C(=O)c3c(Cl)ccc(NC(C)=O)c3C2=O)ccc1OC [Compound 111, (S)—N-(7-chloro-2-(1-(3-ethoxy-4-methoxyphenyl)-2-(methylsulfonyl)ethyl)-1,3-dioxoisoindolin-4-yl)acetamide]
17 | 39 | 25 | 41 | CCOc1cc(C(CS(C)(=O)=O)N2C(=O)c3cc(F)cc(NC(C)=O)c3C2=O)ccc1OC (stereo not drawn) [Compound 201, N-(2-(1-(3-ethoxy-4-methoxyphenyl)-2-(methylsulfonyl)ethyl)-6-fluoro-1,3-dioxoisoindolin-4-yl)acetamide]
18 | 11 | 5.4 | 11 | CCOc1cc([C@@H](CS(C)(=O)=O)N2C(=O)c3cc(F)cc(NC(C)=O)c3C2=O)ccc1OC [Compound 202, (S)—N-(2-(1-(3-ethoxy-4-methoxyphenyl)-2-(methylsulfonyl)ethyl)-6-fluoro-1,3-dioxoisoindolin-4-yl)acetamide]
19 | 102 | 65 | 116 | CCOc1cc(C(CS(C)(=O)=O)N2C(=O)c3ccc(F)c(NC(C)=O)c3C2=O)ccc1OC (stereo not drawn) [Compound 301, N-(2-(1-(3-ethoxy-4-methoxyphenyl)-2-(methylsulfonyl)ethyl)-5-fluoro-1,3-dioxoisoindolin-4-yl)acetamide]
